Assay: Glass transition temperature by differential scanning calorimetry (DSC)
Type: physicochemical
Settings: trehalose lyophilized in the same manner as the composition; average of samples
Experimental: The glass transition temperatures referred to herein (e.g., Tg(s) and Tg(c)) are the transition temperatures determined using differential scanning calorimetry (DSC). DSC measures the change in heat capacity between the glassy and rubbery states and is typically indicated by a change in baseline in a DSC thermogram.
The Tg(c) of the lyophilized composition was determined using a DSC Q2000 (TA Instruments) under a stream of nitrogen gas at 50 mL/minute as the purge gas. Several samples of the lyophilized composition (each about 5 mg) were prepared in a nitrogen purged glove box, and each was loaded into an aluminum DSC pan and hermetically sealed. The pans along with an empty pan as control were run in the DSC. The pans were first equilibrated at 25° C., then modulated at ±0.5° C. every 60 seconds, and then the temperature was raised at a rate of 2.5° C. per minute to a final temperature of 140° C. The samples was determined to have a Tg(c) of 97±2° C.
Several samples of trehalose were lyophilized in the same manner as set forth above for the caspofungin diacetate composition. The glass transition temperature Tg(s) of each of the lyophilized trehalose samples was determined using the instrument and procedure employed to determine Tg(c) described in the preceding paragraph. The average Tg(s) of the samples was 118±2° C.

Tg(s): 118±2 °C
Compound: OC[C@H]1O[C@H](O[C@H]2O[C@H](CO)[C@@H](O)[C@H](O)[C@H]2O)[C@H](O)[C@@H](O)[C@@H]1O [trehalose]

— US8551942B2, “Lyophilized anti-fungal compositions” (Merck Sharp & Dohme Corp., priority 2007, dated 2013)
